The record followed here is patent US5591741A, “Fungicidal spiroheterocyclic derivatives” (American Cyanamid Company, priority 1993, dated 1997).

The subject of one assay is Plasmopara viticola. As to the kind of experiment: Antisporulant activity against vine downy mildew (PVA). It counts as in vivo. The settings on record: vine leaves, antisporulant foliar spray, 600 ppm, 750 l/ha. In a few lines:
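Cabernet Sauvignon vines (~8 cm) inoculated on lower leaf surfaces with 5×10^4 zoosporangia/ml, held 24 h at 21° C high humidity then 24 h glasshouse. Infected leaves sprayed underside with 600 ppm compound in 1:1 water/acetone, 0.04% Tween 20, 750 l/ha; 96 h glasshouse, 24 h humidity. Sporulating leaf area rated versus control.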

Assay [1] relates to Erysiphe graminis f.sp. hordei. As to the kind of experiment: Activity against barley powdery mildew, direct therapeutic (EGT). The assay is classed as in vivo. The settings on record: direct therapeutic foliar spray, 600 ppm, up to 7 days. In a few lines: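 A curative spray at 600 ppm was applied to single-leaf Golden Promise barley inoculated with powdery mildew conidia the previous day. After up to 7 days at 18 °C and 40% humidity, disease control was rated from percent leaf area sporulating relative to untreated or diluent-sprayed controls.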

In another assay the test system is Leptosphaeria nodorum. As to the kind of experiment: Activity against wheat leafspot (LN). It counts as in vivo. The note with it: direct therapeutic foliar spray, 600 ppm, 6-8 days. In a few lines: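 Therapeutic foliar spray: compound at 600 ppm applied to single-leaf wheat (cv Norman) 24 h after inoculation with 1.5×10^6 conidia/ml. Disease control scored after 6-8 days at 22° C and 70% humidity as lesions per leaf versus untreated or diluent-sprayed controls.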

The test system of another assay is Venturia inaequalis. As to the kind of experiment: Activity against apple scab in-vitro (VII). The assay is classed as cell-based. The note with it: 10 ppm, 10 days, 20° C., mycelial growth. Summed up:
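V. inaequalis propagules (5×10^4/ml, malt agar-grown) were exposed in half-strength PDB to 10 ppm final test compound delivered in acetone. Growth was scored after incubation for 10 days at 20° C, as a rating relative to untreated or diluent-sprayed controls.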

Another assay has as its system Botrytis cinerea. The assay is described as follows: Direct protectant activity against broad bean grey mould (BCB). It counts as in vivo. The settings on record: direct protectant foliar spray, 600 ppm, 4 days. In a few lines:
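Protectant foliar test: lesion coverage assessed 4 days after inoculation and rated relative to untreated or diluent-sprayed plants. Compound applied at 600 ppm to cv The Sutton leaves 24 h before 10^6 conidia/ml suspension; incubation at 22 °C in high humidity.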

Assay [2] deals with Erysiphe graminis f.sp. hordei. The assay is described as follows: Direct protectant activity against barley powdery mildew (EGP). The assay is classed as in vivo. The settings on record: direct protectant foliar spray, 8 days. Summed up:
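Rating reflects percentage of leaf area with sporulation compared with untreated or diluent-sprayed controls. Protectant spray was applied to single-leaf barley (cv Golden Promise) 24 h before conidia inoculation. Plants were kept at 18 °C and 40% RH throughout, with 8 days of disease development.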

For another assay, the system named is Rhizoctonia solani. As to the kind of experiment: Activity against Rhizoctonia in-vitro (RSI). The assay is classed as cell-based. The note with it: 10 ppm, 10 days, 20° C., mycelial growth. Summed up:
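Compound at a final 10 ppm (acetone vehicle) in half-strength PDB, inoculated with 5×10^4 fragments/ml of shaken-culture R. solani mycelium. After incubation at 20° C for 10 days, growth scored as a rating versus untreated or diluent-treated controls.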

Another assay relates to Pyricularia oryzae. The assay is classed as in vivo. The settings on record: rice seedlings, direct therapeutic foliar spray, 600 ppm, 4-5 days.
In assay [3] the test system is Pseudocercosporella herpotrichoides. As to the kind of experiment: Activity against wheat eyespot in-vitro (PHI). It counts as cell-based. The note with it: 10 ppm, 10 days, 20° C., mycelial growth. Summed up: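 Mycelial growth was scored after 10 days at 20 °C against untreated or diluent controls. The broth was half-strength potato dextrose, holding 10 ppm test compound (from acetone) and 5×10^4 fragments/ml of the eyespot fungus.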

A further assay has as its system Alternaria solani. As to the kind of experiment: Activity against tomato early blight (AS). It counts as in vivo. The note with it: Table VI; tomato seedlings, contact prophylactic foliar spray, 4 days. In a few lines:
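Plants were challenged with A. solani conidia (10^4 spores/ml) 24 h after a protective foliar spray of compound in 50:50 acetone/water plus 0.04% Tween 20. Held humid at 21° C for 4 days, then percent leaf area with lesions was scored as a rating relative to controls.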

The next assay concerns Phytophthora infestans. The assay is classed as in vivo. The settings on record: tomato, direct protectant foliar spray.

Take `CCC(CC)NC1COC2(CCC(C(C)(C)C)CC2)C1` (stereo not shown) [Compound 83]: the “disease control rating PVA” value in the assay on Plasmopara viticola is 0 (less than 50% disease control). Further, the “disease control rating EGT” value in assay [1] was 2 (greater than 80% disease control). The “disease control rating LN” value in the assay with Leptosphaeria nodorum is 0 (less than 50% disease control). Besides, the “disease control rating VII” value in the assay on Venturia inaequalis is 0 (less than 50% disease control). Besides, the “disease control rating BCB” value in the assay on Botrytis cinerea is 1 (about 50-80% disease control). Further, in assay [2], the “disease control rating EGP” value is on record as 2 (greater than 80% disease control). Besides, the “disease control rating RSI” value in the assay with Rhizoctonia solani is on record as 0 (less than 50% disease control). For the same compound, in the assay on Pyricularia oryzae, the “disease control rating PO” value is given as 0 (less than 50% disease control). Besides, in [3], the “disease control rating PHI” value is reported as 0 (less than 50% disease control). Besides, in the assay with Alternaria solani, the “disease control rating AS” value is recorded as 0 (less than 50% disease control). Further, the “disease control rating PIP” value in the assay with Phytophthora infestans was 0 (less than 50% disease control).

In the case of `CCCCCCNC1CC2(CCC(C(C)(C)C)CC2)OC1C` (stereo not shown) [Compound 84], in the assay on Plasmopara viticola, the “disease control rating PVA” value is 0 (less than 50% disease control). Also, the “disease control rating EGT” value in assay [1] is 2 (greater than 80% disease control). Moreover, the “disease control rating LN” value in the assay on Leptosphaeria nodorum is 0 (less than 50% disease control). The “disease control rating VII” value in the assay with Venturia inaequalis is listed as 1 (about 50-80% disease control). Besides, the “disease control rating BCB” value with Botrytis cinerea is reported as 0 (less than 50% disease control). In assay [2], the “disease control rating EGP” value is 2 (greater than 80% disease control). Further, the “disease control rating RSI” value with Rhizoctonia solani was 1 (about 50-80% disease control). Also, the “disease control rating PO” value in the assay with Pyricularia oryzae is 0 (less than 50% disease control). The “disease control rating PHI” value in [3] was 0 (less than 50% disease control). The “disease control rating AS” value in the assay with Alternaria solani is 0 (less than 50% disease control). For the same compound, the “disease control rating PIP” value in the assay with Phytophthora infestans is given as 2 (greater than 80% disease control).

For the compound `CC(C)(C)C1CCC2(CC1)CC(NC1CC3CCC1C3)CO2` (stereo not shown) [Compound 85], in the assay with Plasmopara viticola, the “disease control rating PVA” value is recorded as 0 (less than 50% disease control). The “disease control rating EGT” value in [1] was 2 (greater than 80% disease control). Moreover, the “disease control rating LN” value in the assay with Leptosphaeria nodorum is given as 0 (less than 50% disease control). Besides, the “disease control rating VII” value with Venturia inaequalis is 1 (about 50-80% disease control). Besides, in the assay with Botrytis cinerea, the “disease control rating BCB” value is on record as 2 (greater than 80% disease control). Moreover, in [2], the “disease control rating EGP” value was 2 (greater than 80% disease control). For the same compound, in the assay on Rhizoctonia solani, the “disease control rating RSI” value is recorded as 0 (less than 50% disease control). For the same compound, the “disease control rating PO” value in the assay with Pyricularia oryzae is recorded as 0 (less than 50% disease control). Moreover, the “disease control rating PHI” value in [3] is listed as 0 (less than 50% disease control). Also, the “disease control rating AS” value in the assay on Alternaria solani is listed as 0 (less than 50% disease control). The “disease control rating PIP” value in the assay on Phytophthora infestans was 2 (greater than 80% disease control).

In the case of `CC(C)(C)C1CCC2(CC1)CC(NC1C3CC4CC(C3)CC1C4)CO2` (stereo not shown) [Compound 86], the “disease control rating PVA” value in the assay on Plasmopara viticola is recorded as 0 (less than 50% disease control). Besides, in [1], the “disease control rating EGT” value was 2 (greater than 80% disease control). The “disease control rating LN” value in the assay on Leptosphaeria nodorum is 0 (less than 50% disease control). For the same compound, the “disease control rating VII” value with Venturia inaequalis is reported as 1 (about 50-80% disease control). The “disease control rating BCB” value in the assay on Botrytis cinerea is reported as 0 (less than 50% disease control). In addition, the “disease control rating EGP” value in assay [2] is reported as 2 (greater than 80% disease control). Moreover, the “disease control rating RSI” value in the assay on Rhizoctonia solani is recorded as 0 (less than 50% disease control). Also, in the assay on Pyricularia oryzae, the “disease control rating PO” value is listed as 0 (less than 50% disease control). Besides, the “disease control rating PHI” value in [3] is 0 (less than 50% disease control). Also, in the assay on Alternaria solani, the “disease control rating AS” value is 2 (greater than 80% disease control). Further, the “disease control rating PIP” value with Phytophthora infestans was 2 (greater than 80% disease control).

As for `CC1CCCCC1NC1COC2(CCC(C(C)(C)C)CC2)C1` (stereo not shown) [Compound 87], the “disease control rating PVA” value in the assay on Plasmopara viticola is on record as 0 (less than 50% disease control). The “disease control rating EGT” value in assay [1] is recorded as 2 (greater than 80% disease control). For the same compound, in the assay on Leptosphaeria nodorum, the “disease control rating LN” value is listed as 0 (less than 50% disease control). Moreover, the “disease control rating VII” value with Venturia inaequalis was 1 (about 50-80% disease control). The “disease control rating BCB” value with Botrytis cinerea is listed as 0 (less than 50% disease control). Besides, the “disease control rating EGP” value in assay [2] is recorded as 2 (greater than 80% disease control). For the same compound, the “disease control rating RSI” value in the assay with Rhizoctonia solani was 1 (about 50-80% disease control). Besides, in the assay on Pyricularia oryzae, the “disease control rating PO” value was 0 (less than 50% disease control). Further, in assay [3], the “disease control rating PHI” value was 0 (less than 50% disease control). Further, the “disease control rating AS” value in the assay on Alternaria solani is on record as 0 (less than 50% disease control). Moreover, the “disease control rating PIP” value in the assay with Phytophthora infestans is 2 (greater than 80% disease control).

Regarding `CC1CCCC(NC2COC3(CCC(C(C)(C)C)CC3)C2)C1` (stereo not shown) [Compound 88], in the assay on Plasmopara viticola, the “disease control rating PVA” value was 0 (less than 50% disease control). The “disease control rating EGT” value in [1] is given as 2 (greater than 80% disease control). Further, the “disease control rating LN” value in the assay on Leptosphaeria nodorum was 0 (less than 50% disease control). For the same compound, in the assay with Venturia inaequalis, the “disease control rating VII” value is reported as 1 (about 50-80% disease control). In addition, in the assay with Botrytis cinerea, the “disease control rating BCB” value is 2 (greater than 80% disease control). Besides, in assay [2], the “disease control rating EGP” value is 2 (greater than 80% disease control). Also, the “disease control rating RSI” value in the assay on Rhizoctonia solani is listed as 1 (about 50-80% disease control). The “disease control rating PO” value with Pyricularia oryzae is given as 0 (less than 50% disease control). Besides, the “disease control rating PHI” value in assay [3] is on record as 0 (less than 50% disease control). The “disease control rating AS” value in the assay with Alternaria solani is given as 0 (less than 50% disease control). Further, the “disease control rating PIP” value with Phytophthora infestans is on record as 2 (greater than 80% disease control).

For the compound `CC1CCC(NC2COC3(CCC(C(C)(C)C)CC3)C2)CC1` (stereo not shown) [Compound 89], the “disease control rating PVA” value in the assay on Plasmopara viticola was 1 (about 50-80% disease control). For the same compound, the “disease control rating EGT” value in [1] is listed as 2 (greater than 80% disease control). Further, the “disease control rating LN” value in the assay on Leptosphaeria nodorum is 1 (about 50-80% disease control). Also, the “disease control rating VII” value in the assay on Venturia inaequalis is given as 0 (less than 50% disease control). Also, in the assay with Botrytis cinerea, the “disease control rating BCB” value is 0 (less than 50% disease control). The “disease control rating EGP” value in [2] was 2 (greater than 80% disease control). Further, the “disease control rating RSI” value with Rhizoctonia solani was 1 (about 50-80% disease control). Moreover, in the assay on Pyricularia oryzae, the “disease control rating PO” value is 0 (less than 50% disease control). For the same compound, the “disease control rating PHI” value in assay [3] is reported as 0 (less than 50% disease control). Further, the “disease control rating AS” value in the assay on Alternaria solani was 0 (less than 50% disease control). The “disease control rating PIP” value in the assay with Phytophthora infestans is given as 0 (less than 50% disease control).

As to `CC(C)(C)C1CCC2(CC1)CC(NC1CCC(O)CC1)CO2` (stereo not shown) [Compound 90], the “disease control rating PVA” value with Plasmopara viticola is on record as 0 (less than 50% disease control). The “disease control rating EGT” value in assay [1] was 2 (greater than 80% disease control). Further, in the assay with Leptosphaeria nodorum, the “disease control rating LN” value is reported as 0 (less than 50% disease control). Further, in the assay with Venturia inaequalis, the “disease control rating VII” value is listed as 0 (less than 50% disease control). Besides, in the assay on Botrytis cinerea, the “disease control rating BCB” value is 2 (greater than 80% disease control). In [2], the “disease control rating EGP” value is 2 (greater than 80% disease control). Further, in the assay with Rhizoctonia solani, the “disease control rating RSI” value is listed as 0 (less than 50% disease control). For the same compound, in the assay on Pyricularia oryzae, the “disease control rating PO” value is on record as 0 (less than 50% disease control). Further, the “disease control rating PHI” value in assay [3] is listed as 0 (less than 50% disease control). In the assay on Alternaria solani, the “disease control rating AS” value was 0 (less than 50% disease control). Further, the “disease control rating PIP” value in the assay on Phytophthora infestans is 2 (greater than 80% disease control).
